Like-named read-outs stand apart in the source and are kept apart here.
Legend:
human cathepsin L = biological target: T1, human cathepsin L (Homo sapiens, UniProt P07711); assay: Effects on human cathepsin L enzymatic activity; format: biochemical
T1 construct: purchased Calbiochem
Description: (§1) Effects on human cathepsin B and L enzymatic activity
(§2) The anthraquinone monosulfonated and disulfonated compounds were dissolved in distilled water whereas the derivatives thereof were dissolved in dimethylsulfoxide. The concentration of the tested product was added to the reaction mixture in a volume of 100 μl.
(§3) Composition of the reaction mixture: 0.005M acetate buffer pH 6.0+2 mM cysteine+1 mM EDTA; Enzyme 1 U/ml (cathepsin B or L) (Calbiochem); substrate 0.2 mM Z-Phe-Arg-AMC (Novabiochem) final reaction volume 2 ml; temperature 25° C.; observation time for cathepsin B: 2 minutes; for L: 8 minutes. This is a fluorimetric determination wherein the excitation wavelength was 380 nm, the emission one being instead 460 nm. Fluorescence was read by means of a Perkin-Elmer spectrophotometer mod. LS-3B.

human cathepsin B = biological target: T2, human cathepsin B (Homo sapiens, UniProt P07858); assay: Effects on human cathepsin B enzymatic activity; format: biochemical
T2 construct: purchased Calbiochem
Description: as §1, §2, §3
Anthraquinone-2,6-disulfonic acid: 1-5-10 μM
Anthraquinone-1,5-disulfonic acid: 1-5-10 μM
N,N'-(p-Ethoxyphenyl)-2,6-anthraquinone-disulfonamide: 1-10 μM.

[1] = system: copper "scavenging" of superoxide anion produced by the hypoxanthine/xanthine oxidase system; assay: Copper "scavenging" effect (superoxide anion from hypoxanthine/xanthine oxidase system, cytochrome C); format: biochemical; settings: for % Reduction (effect on copper "scavenging" action): hypoxanthine/xanthine oxidase, cytochrome c
Description: The study involves the production of superoxide anion by means of the hypoxanthine/xanthine oxidase system and the target is the reduction in cytochrome C iron content. […] Copper chelants inhibit such a "scavenging" effect.

[2] = system: Chinese hamster ovary (CHO) cells; assay: Test of induction of chromosomal aberrations; format: cell-based; settings: for Metaphases with aberrations: + S-9; for Aberrations complex (C) / Aberrations simple (S) / Aberrations S + C: 100 metaphases
Description: The clastogenetic effect of rhein and of 2,6-anthraquinonedisulfonic acid, was evaluated using the test of the induction of chromosomal aberrations in cell cultures of chinese hamster ovary (CHO). In this test, the cell line was treated with the tested substances and with suitable controls, in the presence of a metabolic activation system for four hours. After that, the cell in growth exponential phase were treated with colchicine (Colcemid^R) for 90 minutes, so as to obtain a significant number of cells in metaphase and to recover them for the preparation of the chromosome suspension. As the positive standard, cyclophosphamide was used (1-5-10-12.5-25 μg/ml).
The toxicity of the tested compounds was evaluated by means of the assay of the efficiency of plating, treating the cells for four hours, then seeding them at a concentration of 200 cells/5 ml of fresh culture medium.
On the ground of the results obtained by means of this test, dosages were selected for the treatment in the test of induction of chromosomal aberrations, so as not to exceed, with the highest dosage, 50% toxicity levels.
The chromosomal aberrations were recorded describing the type of structural damage. The numeric aberrations and gaps were discarded. Metaphases showing a good chromosomal opening, a good staining and an acceptable chromosome number (20±2) were selected. For statistical evaluations of the results, the quadratic Chi test was used.

[3] = Adjuvant arthritis (Freund's complete adjuvant) in the rat: paw volume, radiography, histology; format: in vivo, rat (albino Sprague Dawley); settings: for Volume increase in the oedema after 15 days, left paw / Volume increase in the oedema after 15 days, right paw: 20 mg/kg/os; for Volume increase in the oedema after 15 days, left paw: left (adjuvant-injected) rear paw, control 252 ± 26; for Volume increase in the oedema after 15 days, right paw: right rear paw, control 77 ± 29
Description: The test evaluates the effect of the compounds anthraquinone-2,6-disulfonicacid and N,N'-diethylanthraquinone-2,6-disulfonamide on rheumatoid arthritis in the rat induced by administration of complete Freund's adjuvant. Diacetylrhein was used as control.
For the test, albino Sprague Dawley rats weighing 200±10 g, were subdivided into four groups of six animals each. All of the compounds were administered orally at a dosage of 20 mg/kg. Arthritis was induced administering all the animals, in the left rear paw, with 5 mg of Freund's complete adjuvant suspended in 0.05 ml of paraffin oil (prior to the treatment, the paw volume of both rear paws was measured). The treatment with the tested products started 5 days after the arthritis induction and was carried out for ten days. Al the end of this time, the animals were killed to effect the analysis of the following evaluation parameters: measurement of the volume of both left and right rear paws; Rx in lateral and antero-posterior position of the tibio-tarsal articulation of the left paw; histology evaluation of the articulation of both left and right rear paws.

[4] = background art; cited from earlier work
ceruloplasmin = settings: acute phase of arthritis inflammation; background art; cited from earlier work
[5] = background art (U.S. Pat. No. 4,244,968); cited from earlier work
elastase = settings: from man; Raimondi 1982, Zembower 1992; cited from earlier work
[6] = system: superoxide anion from NADPH-dependent biological systems; settings: Mian M. et al. 1987; cited from earlier work
cathepsin G = settings: from man; Raimondi 1982, Zembower 1992; cited from earlier work
[7] = M (mean of experiments 1-3), read-out: % Inhibition
[8] = experiment n. 1, read-out: % Inhibition
[9] = experiment n. 2, read-out: % Inhibition
[10] = experiment n. 3, read-out: % Inhibition
[11] = 20 mg/kg orally, ten days, right paw

T1 sequence (P07711 114-288 limits assumed): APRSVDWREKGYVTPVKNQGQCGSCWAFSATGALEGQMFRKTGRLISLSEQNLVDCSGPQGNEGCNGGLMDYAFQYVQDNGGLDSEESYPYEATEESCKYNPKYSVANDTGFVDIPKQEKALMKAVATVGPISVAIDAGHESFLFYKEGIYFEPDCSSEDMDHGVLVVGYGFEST
T1 sequence (P07711 292-333 limits assumed): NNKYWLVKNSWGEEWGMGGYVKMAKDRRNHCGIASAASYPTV

## O=C1c2cccc(S(=O)(=O)O)c2C(=O)c2cccc(S(=O)(=O)O)c21 [1,5-anthraquinonedisulfonic acid, Anthraquinone-1,5-disulfonic acid]
Human cathepsin L; M (mean of tests 1-3)
  inhibition at 1 µM: 8.1%
  inhibition at 10 µM: 54.3%
Human cathepsin L; test n. 1
  inhibition at 1 µM: 10.5%
  inhibition at 10 µM: 48.6%
Human cathepsin L; test n. 2
  inhibition at 1 µM: 8.4%
  inhibition at 10 µM: 60.5%
Human cathepsin L; test n. 3
  inhibition at 1 µM: 5.5%
  inhibition at 10 µM: 53.9%
Human cathepsin B; [7]
  inhibition at 1 µM: 3.4%
  inhibition at 5 µM: 9.6%
  inhibition at 10 µM: 44.4%
Human cathepsin B; [8]
  inhibition at 1 µM: 4.1%
  inhibition at 5 µM: 10.3%
  inhibition at 10 µM: 55.1%
Human cathepsin B; [9]
  inhibition at 1 µM: 3.6%
  inhibition at 5 µM: 7.2%
  inhibition at 10 µM: 36.6%
Human cathepsin B; [10]
  inhibition at 1 µM: 2.5%
  inhibition at 5 µM: 11.4%
  inhibition at 10 µM: 41.6%
[1]
  % Reduction (effect on copper "scavenging" action): 4%

## O=C1c2ccccc2C(=O)c2c1cccc2S(=O)(=O)O [1-AQ, 1-anthraquinonesulfonic acid]
[1]
  inhibition of copper "scavenging" effect (in words): nearly inactive
  % Reduction (effect on copper "scavenging" action): 3%

## O=C1c2ccc(S(=O)(=O)O)cc2C(=O)c2ccc(S(=O)(=O)O)cc21 [2,6-anthraquinonedisulfonic acid]
Human cathepsin L; M (mean of tests 1-3)
  inhibition at 1 µM: 35.6%
  inhibition at 10 µM: 94.5%
Human cathepsin L; test n. 1
  inhibition at 1 µM: 39.6%
  inhibition at 10 µM: 92.1%
Human cathepsin L; test n. 2
  inhibition at 1 µM: 31.4%
  inhibition at 10 µM: 96.5%
Human cathepsin L; test n. 3
  inhibition at 1 µM: 35.8%
  inhibition at 10 µM: 94.8%
Human cathepsin B; M (mean of experiments 1-3)
  inhibition at 1 µM: 40.7%
  inhibition at 5 µM: 70.1%
  inhibition at 10 µM: 94.9%
Human cathepsin B; experiment n. 1
  inhibition at 1 µM: 43.7%
  inhibition at 5 µM: 68.5%
  inhibition at 10 µM: 98.9%
Human cathepsin B; experiment n. 2
  inhibition at 1 µM: 33.7%
  inhibition at 5 µM: 65.8%
  inhibition at 10 µM: 98.2%
Human cathepsin B; experiment n. 3
  inhibition at 1 µM: 38.5%
  inhibition at 5 µM: 76%
  inhibition at 10 µM: 87.7%
[2]; 50 μg/ml, 100 total metaphases, N.S.
  Metaphases with aberrations: 2
[2]; 100 μg/ml, 100 total metaphases, N.S.
  Metaphases with aberrations: 4
[2]; 150 μg/ml, 100 total metaphases, N.S.
  Metaphases with aberrations: 8
[2]; 200 μg/ml, 100 total metaphases, N.S.
  Metaphases with aberrations: 8
[2]; 250 μg/ml, 100 total metaphases, N.S.
  Metaphases with aberrations: 6
[2]; 50-250 μg/ml
  induction of chromosomal aberrations (in words): induces no chromosomal aberrations
[3]; 20 mg/kg orally, ten days
  inhibition (reduction) of the increase in the volume of the left rear paw: 18.6%
[3]; [11]
  inhibition of the increase in the volume of the right paw: 67.5%
[3]
  Volume increase in the oedema after 15 days, left paw: 205 ± 41
  Volume increase in the oedema after 15 days, right paw: 25 ± 20

## O=C1c2ccccc2C(=O)c2cc(S(=O)(=O)O)ccc21 [2-AQ, 2-anthraquinonesulfonic acid]
[1]
  inhibition of copper "scavenging" effect (in words): nearly inactive
  % Reduction (effect on copper "scavenging" action): 5%

## O=P1(N(CCCl)CCCl)NCCCO1 (centres unmarked) [CPS, Cyclophosphamide]
[2]; 1 μg/ml, 100 total metaphases, N.S.
  Metaphases with aberrations: 10
[2]; 5 μg/ml, 100 total metaphases, P < 0.001
  Metaphases with aberrations: 25
[2]; 10 μg/ml, 32 total metaphases, P < 0.001, control 13 of 220
  Metaphases with aberrations: 12
[2]; CPS 12.5 μg/ml
  Aberrations complex (C): 44
  Aberrations simple (S): 0
[2]; CPS 12.5 μg/ml, P < 0.001
  Aberrations S + C: 44
[2]; CPS 25 μg/ml, P < 0.001, control 12 of 400
  Aberrations S + C: 87
[2]; CPS 25 μg/ml, control 4 of 400
  Aberrations complex (C): 87
[2]; CPS 25 μg/ml, control 8 of 400
  Aberrations simple (S): 0

## CC(=O)Oc1cccc2c1C(=O)c1c(OC(C)=O)cc(C(=O)O)cc1C2=O [Diacetylrhein, diacetylrhein, reference compound]
[4]
  copper chelation: copper chelating agent
ceruloplasmin
  inhibition of the formation of ceruloplasmin: inhibits the formation of ceruloplasmin
[5]
  calcium chelation: calcium chelating agent
[3]; 20 mg/kg orally, ten days
  inhibition (reduction) of the increase in the volume of the left rear paw: 8.3%
[3]; [11]
  effect on the increase in the volume of the right paw (in words): complete lack in activity
[3]; 20 mg/kg orally, tibio-tarsal articulation
  formation of fibrous tissue in the articulation (histological examination): remarkably present
[3]
  Volume increase in the oedema after 15 days, left paw: 231 ± 22
  Volume increase in the oedema after 15 days, right paw: 92 ± 30

## CCOc1ccc(NS(=O)(=O)c2ccc3c(c2)C(=O)c2ccc(S(=O)(=O)Nc4ccc(OCC)cc4)cc2C3=O)cc1 [N,N'-(p-Ethoxyphenyl)-2,6-anthraquinonedisulfonamide]
Human cathepsin L; M (mean of tests 1-3)
  inhibition at 1 µM: 8.8%
  inhibition at 10 µM: 55.2%
Human cathepsin L; test n. 1
  inhibition at 1 µM: 8.5%
  inhibition at 10 µM: 53.6%
Human cathepsin L; test n. 2
  inhibition at 1 µM: 7.1%
  inhibition at 10 µM: 48.1%
Human cathepsin L; test n. 3
  inhibition at 1 µM: 10.9%
  inhibition at 10 µM: 63.8%
Human cathepsin B; [7]
  inhibition at 1 µM: 19%
  inhibition at 10 µM: 80.2%
Human cathepsin B; [8]
  inhibition at 1 µM: 23.7%
  inhibition at 10 µM: 76.6%
Human cathepsin B; [9]
  inhibition at 1 µM: 18.6%
  inhibition at 10 µM: 80.6%
Human cathepsin B; [10]
  inhibition at 1 µM: 14.8%
  inhibition at 10 µM: 83.4%

## CCNS(=O)(=O)c1ccc2c(c1)C(=O)c1ccc(S(=O)(=O)NCC)cc1C2=O [N,N'-Diethyl-2,6-anthraquinonedisulfonamide]
[3]; 20 mg/kg orally, ten days
  inhibition (reduction) of the increase in the volume of the left rear paw: 21.4%
[3]; [11]
  inhibition of the increase in the volume of the right paw: 62.3%
[3]
  Volume increase in the oedema after 15 days, left paw: 198 ± 31
  Volume increase in the oedema after 15 days, right paw: 29 ± 12

## O=C(O)c1cc(O)c2c(c1)C(=O)c1cccc(O)c1C2=O [Rhein, rhein]
elastase
  inhibition of elastase activity: inhibits
[6]
  inhibition of formation and release of the superoxide anion: inhibits the formation and release of the superoxide anion
Cathepsin G
  inhibition of cathepsin G activity: inhibits
[1]
  inhibition of copper "scavenging" effect (in words): inhibits said effect
  % Reduction (effect on copper "scavenging" action): 45%
[2]; doses of 100 and 200 μg/ml
  induction of chromosomal aberrations (in words): positive
[2]; rhein 25 μg/ml
  Aberrations complex (C): 1
  Aberrations simple (S): 1
[2]; rhein 25 μg/ml, N.S.
  Aberrations S + C: 2
[2]; rhein 50 μg/ml
  Aberrations complex (C): 3
  Aberrations simple (S): 1
[2]; rhein 50 μg/ml, N.S.
  Aberrations S + C: 4
[2]; rhein 100 μg/ml
  Aberrations complex (C): 6
  Aberrations simple (S): 3
[2]; rhein 100 μg/ml, P < 0.05
  Aberrations S + C: 9
[2]; rhein 200 μg/ml
  Aberrations complex (C): 5
  Aberrations simple (S): 3
[2]; rhein 200 μg/ml, P < 0.05
  Aberrations S + C: 8
